Measured values published in BindingDB's records for doi:10.1016/S0960-894X(00)80246-2 (1991).

Experiment: Binding potency against SP receptor in bovine caudate using [3H]- as radioligand

Compound	IC50 [nM]
Clc1ccccc1CN[C@H]1C2CCN(CC2)[C@H]1C(c1ccccc1)c1ccccc1	56
c1ccc(CN[C@H]2C3CCN(CC3)[C@H]2C(c2ccccc2)c2ccccc2)cc1	110
